Test results reported in ChEMBL document CHEMBL1128833, “Aliphatic replacements of the biphenyl moiety of the nonpeptidyl growth hormone secretagogues L-692,429 and L-692,585” (1995).

Key:
[1] = species on record: Rattus norvegicus; assay: In vitro Growth hormone releasing activity in rat pituitary cells; type: functional, Pituitary gland cell; conditions: read-out: ED50 (the source's name)
[2] = species on record: Rattus norvegicus; assay: In vitro Growth hormone releasing activity in rat pituitary cells; weakly active at 1 uM; type: functional; conditions: Pituitary gland cell, read-out: ED50 (the source's name)
[3] = Rattus norvegicus, Pituitary gland cell

## CC(C)(N)CC(=O)N[C@@H]1CCc2ccccc2N(Cc2ccccc2)C1=O
[1]; [3]
  EC50: 7000 nM

## CC(C)(N)CC(=O)N[C@@H]1CCc2ccccc2N(Cc2ccc(-c3ccccc3)c(-c3nn[nH]n3)c2)C1=O
[2]
  EC50: > 1000 nM

## CC(C)(N)CC(=O)N[C@@H]1CCc2ccccc2N(CC2CCC(c3ccccc3-c3nn[nH]n3)CC2)C1=O (stereo partly specified)
[1]; [3]
  EC50: 860 nM

## CC(C)(N)CC(=O)N[C@@H]1CCc2ccccc2N(Cc2ccc(-c3ccccc3)cc2)C1=O
[1]; [3]
  EC50: 3000 nM

## CC(C)(N)CC(=O)N[C@@H]1CCc2ccccc2N(Cc2ccc(-c3ccccc3-c3nn[nH]n3)cc2)C1=O
[1]; [3]
  EC50: 60 nM

## C[C@@H](O)CNC(C)(C)CC(=O)N[C@@H]1CCc2ccccc2N(CC2CCC(c3ccccc3-c3nn[nH]n3)CC2)C1=O (stereo partly specified)
[1]; [3]
  EC50: 75 nM

## CC(C)(N)CC(=O)N[C@@H]1CCc2ccccc2N(CC2=CCC(c3ccccc3-c3nn[nH]n3)CC2)C1=O (stereo in doubt; 34)
[1]
  EC50: 1200 nM

## CC(C)(N)CC(=O)N[C@@H]1CCc2ccccc2N(CC2=CCC(c3ccccc3-c3nn[nH]n3)CC2)C1=O (stereo in doubt; 35)
[1]
  EC50: 120 nM

## C[C@@H](O)CNC(C)(C)CC(=O)N[C@@H]1CCc2ccccc2N(CC2=CCC(c3ccccc3-c3nn[nH]n3)CC2)C1=O (stereo in doubt; 36)
[1]
  EC50: 25 nM

## C[C@@H](O)CNC(C)(C)CC(=O)N[C@@H]1CCc2ccccc2N(CC2=CCC(c3ccccc3-c3nn[nH]n3)CC2)C1=O (stereo in doubt; 37)
[1]
  EC50: 7 nM

## C[C@@H](O)CNC(C)(C)CC(=O)N[C@@H]1CCc2ccccc2N(Cc2ccc(-c3ccccc3-c3nn[nH]n3)cc2)C1=O [L-692585]
[1]; [3]
  EC50: 3 nM
